From article PMC8231256, “Influence of N-Methylation and Conformation on Almiramide Anti-Leishmanial Activity” (Molecules, 2021)
Where two headings read alike, the source gives them in different places.

How the values were obtained:
[1] = LM-1 macrophage cytotoxicity (Alamar Blue); type: cell-based, murine; settings: mouse
Description: The host cytotoxicity was evaluated by monitoring the survival rates of murine LM-1 macrophage at different concentrations of peptides 15–37 ([…]) over 24 h. […] Exceptionally, MeAla peptide amide 21 was 3.2- to 8-fold less toxic than the other peptide analogs.
The LM1- macrophages were grown in DMEM supplemented with 10% heat inactivated FBS. Cells at the concentration of 100,000 cells/mL were cultivated for 24 h in a 96-well plate (37 °C, 5% CO2). The culture medium was removed and fresh medium containing the appropriate drug and concentration was added to the cells, which were incubated for 24 h (37 °C, 5% CO2). Seven different concentrations were tested ([…]) as well as controls (without drugs). After 24 h, the culture medium was removed and replaced for fresh medium containing 10% Alamar Blue (Thermo Fisher Scientific, Waltham, MA, USA) and incubated for 2 h (37 °C, 5% CO2). Readings at 570 and 600 nm (Asys UVM340 Plate reader, Biochrom, Cambridge, UK) were taken and analyzed according to the manufacturer protocol. Survival rates at different drug concentrations and CC50 values were calculated using the Excel software.

[2] = test system: L. infantum AmB1000.1 (resistant to amphotericin B) promastigotes; type: cell-based, Leishmania infantum; settings: for EC50: strain resistant to 1 µM amphotericin B, promastigotes, 72 h, 25 °C, 95% CI in brackets (n = 3), read-out: Ldi AmB-Res EC50
Description: (§1) The biological activity of peptides 15–37 was assessed against the L. infantum wild-type stain (WT), as well as mutants resistant to the common anti-leishmanial agents, such as antimony (Sb^III), amphotericin B (AmB) and miltefosine (MF): Sb2000.1, AmB1000.1 and MF200.5. Activity against Leishmania promastigotes was determined by monitoring the replication of parasites after 72 h of incubation at 25 °C in the presence of increasing concentrations of the different peptides […] and reported as EC50 values (Table 2). […] The greatest potencies were observed using analogs against the amphotericin B resistant strain (e.g., AmB1000.1).
(§2) The L. infantum (MHOM/MA/67/ITMAP-263) wild-type stain (WT), as well as the resistant mutants Sb2000.1, AmB1000.1 and MF200.5 [53, 54, 55, 56, 57, 58], resistant to antimony (Sb^III), amphotericin B (AmB) and miltefosine (MF), respectively, were grown in M199 medium at 25 °C supplemented with 10% fetal bovine serum, 5 μg/mL of haemin at pH 7.0 and 2000 μM Sb (Potassium antimonyl tartrate, Sigma-Aldrich), 200 μM of MF (Miltefosine, Cayman Chem., Ann Arbor, MI, USA) or 1 μM AmB (Amphotericin B solution, Sigma, Oakville, ON, Canada). Antileishmanial values were determined in Leishmania promastigotes by monitoring the replication of parasites after 72 h of incubation at 25 °C in the presence of increasing concentrations of the different peptides by measuring A600 using a Cytation 5 machine (BioTek, Winooski, VT, USA). EC50 values were calculated based on dose–response curves analyzed by non-linear regression with GraphPad Prism 8.4.3 software (GraphPad Software, La Jolla, CA, USA). An average of at least three independent biological replicates from independent cultures was performed for each determination.

[3] = test system: L. infantum MF200.5 (resistant to miltefosine) promastigotes; type: cell-based, Leishmania infantum; settings: for EC50: strain resistant to 200 µM miltefosine, promastigotes, 72 h, 25 °C, 95% CI in brackets (n = 3), read-out: Ldi MF-Res EC50
Description: as §1, §2

[4] = test system: L. infantum (MHOM/MA/67/ITMAP-263) wild-type strain (WT) promastigotes; type: cell-based, Leishmania infantum; settings: for Selectivity Index: SI = CC50 (LM-1 macrophage)/EC50 Ldi WT; for EC50: 72 h
Description: as §1, §2

[5] = test system: L. infantum Sb2000.1 (resistant to antimony) promastigotes; type: cell-based, Leishmania infantum; settings: strain resistant to 2 mM antimonials, 72 h, 25 °C, 95% CI in brackets (n = 3), read-out: Ldi Sb-Res EC50
Description: as §1, §2

Leishmania donovani = test system: Leishmania donovani; set-up: method as in PMID 20441198; settings: cited from earlier work; for selectivity index (CC50/EC50): Vero kidney cells CC50 vs L. donovani
[6] = promastigotes, 25 °C, 95% confidence interval in brackets (n = 3), read-out: Ldi WT EC50
[7] = MHOM/MA/67/ITMAP-263) wild-type strain (WT) promastigotes

Compound | CC50 at 24 h ([1]; LM-1 macrophages, 24 h, Alamar Blue, read-out: CC50) | EC50 [2] | EC50 [3] | Selectivity Index [4] | EC50 [4, 6] | EC50 [5] | CC50 at 24 h [1] | EC50 [4, 7] | fold more active than nonmethylated counterpart ([2]; AmB1000.1, 17 vs 16, 35 vs 31) | fold more active than nonmethylated counterpart ([3]; MF200.5, 35 vs 31) | selectivity index (CC50/EC50) (Leishmania donovani) | activity against Leishmania donovani (Leishmania donovani)
C#CCCCCC(=O)N(C)[C@H](C(=O)N(C)[C@H]1CCN([C@H](C(=O)N(C)[C@@H](C)C(=O)N(C)[C@@H](Cc2ccccc2)C(=O)O)C(C)C)C1=O)C(C)C [peptide 27, HCC(CH2)4CO-Val(Me)-Agl(Me)-Val-Ala(Me)-Phe(Me)-OH] | 295 µM | > 300 µM | > 300 µM | 1.0 | 284 µM | 296 µM | – | – | – | – | – | –
C#CCCCCC(=O)N(C)[C@H](C(=O)N(C)[C@H](C(=O)N(C)[C@H]1CCN([C@@H](C)C(=O)N(C)[C@@H](Cc2ccccc2)C(=O)O)C1=O)C(C)C)C(C)C [peptide 28, HCC(CH2)4CO-Val(Me)-Val(Me)-Agl(Me)-Ala-Phe(Me)-OH] | – | > 300 µM | 282 µM | 0.9 | – | 250 µM | 245 µM | 255 µM | – | – | – | –
C#CCCCCC(=O)N[C@H]1CCN([C@H](C(=O)N[C@H](C(=O)N[C@@H](C)C(=O)N[C@@H](Cc2ccccc2)C(=O)NCCCCCCN)C(C)C)C(C)C)C1=O [peptide 29, HCC(CH2)4CO-Agl-Val-Val-Ala-Phe-NH(CH2)6NH2] | – | 72 µM | 67.9 µM | 5.5 | – | 90.4 µM | 416 µM | 75 µM | – | – | – | –
C#CCCCCC(=O)N[C@H](C(=O)N[C@H]1CCN([C@H](C(=O)N[C@@H](C)C(=O)N[C@@H](Cc2ccccc2)C(=O)NCCCCCCN)C(C)C)C1=O)C(C)C [peptide 30, HCC(CH2)4CO-Val-Agl-Val-Ala-Phe-NH(CH2)6NH2] | – | 114 µM | 129 µM | 8.6 | – | 37.6 µM | 407 µM | 47.4 µM | – | – | – | –
C#CCCCCC(=O)N[C@H](C(=O)N[C@H](C(=O)N[C@H]1CCN([C@@H](C)C(=O)N[C@@H](Cc2ccccc2)C(=O)NCCCCCCN)C1=O)C(C)C)C(C)C [peptide 31, HCC(CH2)4CO-Val-Val-Agl-Ala-Phe-NH(CH2)6NH2] | – | 130 µM | 126 µM | 6.0 | – | 48.8 µM | 389 µM | 64.6 µM | – | – | – | –
C#CCCCCC(=O)N[C@H](C(=O)N[C@H](C(=O)N[C@H](C(=O)N[C@H]1CCN([C@@H](Cc2ccccc2)C(=O)NCCCCCCN)C1=O)C(C)C)C(C)C)C(C)C [peptide 32, HCC(CH2)4CO-Val-Val-Val-Agl-Phe-NH(CH2)6NH2] | – | 90.1 µM | 84.2 µM | 4.3 | – | 87.8 µM | 389 µM | 91.2 µM | – | – | – | –
C#CCCCCC(=O)N(C)[C@H]1CCN([C@H](C(=O)N(C)[C@H](C(=O)N(C)[C@@H](C)C(=O)N(C)[C@@H](Cc2ccccc2)C(=O)NCCCCCCN)C(C)C)C(C)C)C1=O [peptide 33, HCC(CH2)4CO-Agl(Me)-Val-Val(Me)-Ala(Me)-Phe(Me)-NH(CH2)6NH2] | – | 184 µM | 191 µM | 3.4 | – | 140 µM | 407 µM | 119 µM | – | – | – | –
C#CCCCCC(=O)N(C)[C@H](C(=O)N(C)[C@H](C(=O)N(C)[C@H]1CCN([C@@H](C)C(=O)N(C)[C@@H](Cc2ccccc2)C(=O)NCCCCCCN)C1=O)C(C)C)C(C)C [peptide 35, HCC(CH2)4CO-Val(Me)-Val(Me)-Agl(Me)-Ala-Phe(Me)-NH(CH2)6NH2] | – | 92 µM | 85.3 µM | 4.7 | – | 81.5 µM | 371 µM | 78.6 µM | 1.4 fold | 1.5 fold | – | –
C#CCCCCC(=O)Nn1c(C)cn([C@H](C(=O)N[C@H](C(=O)N[C@@H](C)C(=O)N[C@@H](Cc2ccccc2)C(=O)O)C(C)C)C(C)C)c1=O [peptide 36, HCC(CH2)4CO-(5-Me)Nai-Val-Val-Ala-Phe-OH] | – | > 300 µM | > 300 µM | – | > 300 µM | > 300 µM | 436 µM | – | – | – | – | –
C#CCCCCC(=O)N[C@H](C(=O)Nn1c(C)cn([C@H](C(=O)N[C@@H](C)C(=O)N[C@@H](Cc2ccccc2)C(=O)O)C(C)C)c1=O)C(C)C [peptide 37, HCC(CH2)4CO-Val-(5-Me)Nai-Val-Ala-Phe-OH] | – | > 300 µM | > 300 µM | – | > 300 µM | > 300 µM | 407 µM | – | – | – | – | –
Almiramide B [compound 2] | – | – | – | – | – | – | – | – | – | – | 21.8 | low μM activity
Almiramide C [compound 3] | – | – | – | – | – | – | – | – | – | – | 17.4 | low μM activity
almiramide A [compound 1] | – | – | – | – | – | – | – | – | – | – | – | inactive
